Reference: patent US20140309192A1, “MODULATORS OF THE G PROTEIN-COUPLED MAS RECEPTOR AND THE TREATMENT OF DISORDERS RELATED THERETO” (ARENA PHARMACEUTICALS, INC., priority 2011, published 2014)
Entries after “also recorded” stand apart in the source; their conditions may differ.

What follows are molecules tested against T1, rat Mas receptor (Rattus norvegicus, UniProt P12526) (assay: HTRF IP1 assay, HEK293 cells expressing rat Mas receptor). Conditions: HTRF IP1 assay, rat Mas receptor (Table B.1); read-out: IC50.
T1 construct: expressed in transfected cells; host or cells: HEK293 (ATCC CRL-1573)
T1 sequence (P12526 1-324): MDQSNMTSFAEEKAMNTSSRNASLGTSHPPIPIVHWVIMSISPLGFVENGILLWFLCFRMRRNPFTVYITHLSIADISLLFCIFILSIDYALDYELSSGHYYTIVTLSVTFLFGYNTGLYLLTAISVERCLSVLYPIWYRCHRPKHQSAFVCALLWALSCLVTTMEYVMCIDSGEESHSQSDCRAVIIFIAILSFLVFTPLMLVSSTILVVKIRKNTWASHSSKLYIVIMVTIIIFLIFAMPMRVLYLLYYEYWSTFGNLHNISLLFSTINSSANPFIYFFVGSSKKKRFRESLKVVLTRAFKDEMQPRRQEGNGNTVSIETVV
Assay type: cell-based
From the text: (§1) Human and rat Mas receptors were either transiently or stably expressed in HEK293 cells. For transient transfections, human or rat Mas in pHM6 vector were transfected into HEK293 cells using Lipofectamine® (Invitrogen #18324-012). HEK293 cells transfected with empty pHM6 vector were used as a control. For generation of stable cell lines, cDNA expression plasmids encoding human or rat Mas genes and the neo^r gene were transfected into HEK293 cells (ATCC# CRL-1573) using Lipofectamine® (Invitrogen) according to the manufacturer's instructions. Stable receptor expressing pools were then generated over 3 weeks by standard techniques in the presence of 500 μg/mL Geneticin® (Gibco). Individual receptor stable pools were dilution cloned using standard techniques and clones were comparatively evaluated in inositol phosphate accumulation assays. Preferred clones were banked and cultured as needed. HEK293 cells were used as controls. The 384 well IP-One HTRF® Assay (Cisbio #62P1APEJ) was performed as described by the manufacturer's protocol. Cells were plated in at 100,000 cells per well in 15 μL DMEM (Gibco #11960) and incubated in a CO2 incubator at 37° C. for 2 h. Five μL of compounds diluted in 2× stimulation buffer plus 0.4% BSA (Sigma (#A3059) were added to each well and serial diluted IP1 standards (Cisbio #62IP1CDA) were also added to corresponding wells at this step. After the cells were incubated for 4 h in a CO2 incubator at 37° C., d2-labeled IP1 and cryptate-labeled anti-IP1 monoclonal antibody diluted in lysis buffer were added sequentially in 10 μL per well and the assay plates were kept in the dark at room temperature overnight. Ratiometric measurements of fluorescence emission at 665 nm and 620 nm were obtained using a Pherastar fluorometer (BMG Labtech). IP1 levels in each well were calculated according to the standard curves on each plate. IC50 values were obtained by fitting data to a nonlinear curve-fitting program (GraphPad Software, Inc., La Jolla Calif.).

| SMILES | IC50 [µM] |
| --- | --- |
| C[C@H](NCc1ccc(C(=O)Nc2ccc(Cl)cc2N2CCN(CCC(F)(F)F)CC2)c(F)c1)C(N)=O [Compound 67, (S)-4-((1-Amino-1-oxopropan-2-ylamino)methyl)-N-(4-chloro-2-(4-(3,3,3-trifluoropropyl)piperazin-1-yl)phenyl)-2-fluorobenzamide] | 0.082 |
| O=C(Nc1ccc(Cl)cc1N1CCN(CCC(F)(F)F)CC1)c1ccc(CNC2CCCCNC2=O)cc1F (stereo not drawn) [Compound 79, N-(4-Chloro-2-(4-(3,3,3-trifluoropropyl)piperazin-1-yl)phenyl)-2-fluoro-4-((2-oxoazepan-3-ylamino)methyl)benzamide] | 0.133 |
| N[C@@H]1CCCN(Cc2ccc(C(=O)Nc3ccc(Cl)cc3N3CCN(CCC(F)(F)F)CC3)c(F)c2)C1 [Compound 90, (R)-4-((3-Aminopiperidin-1-yl)methyl)-N-(4-chloro-2-(4-(3,3,3-trifluoropropyl)piperazin-1-yl)phenyl)-2-fluorobenzamide] | 0.704 |
| O=C(Nc1ccc(Cl)cc1N1CCN(CCC(F)(F)F)CC1)c1ccc(CNC(CO)(CO)CO)cc1F [Compound 103, N-(4-Chloro-2-(4-(3,3,3-trifluoropropyl)piperazin-1-yl)phenyl)-4-((1,3-dihydroxy-2-(hydroxymethyl)propan-2-ylamino)methyl)-2-fluorobenzamide] | 0.535 |
| CCN1CCCCC(NCc2ccc(C(=O)Nc3ccc(Cl)cc3N3CCN(CCC(F)(F)F)CC3)c(F)c2)C1=O (stereo not drawn) [Compound 117, N-(4-Chloro-2-(4-(3,3,3-trifluoropropyl)piperazin-1-yl)phenyl)-4-((1-ethyl-2-oxoazepan-3-ylamino)methyl)-2-fluorobenzamide] | 0.373 |
| C[C@@H](O)CNCc1ccc(C(=O)Nc2ccc(Cl)cc2N2CCN(CCC(F)(F)F)CC2)c(F)c1 [Compound 130, (R)—N-(4-Chloro-2-(4-(3,3,3-trifluoropropyl)piperazin-1-yl)phenyl)-2-fluoro-4-((2-hydroxypropylamino)methyl)benzamide] | 0.252 |
| O=C(Nc1ccc(Cl)cc1N1CCN(CCC(F)(F)F)CC1)c1ccc(CN(CCO)CCO)cc1F [Compound 144] | 0.108 |
| O=C(Nc1ccc(Cl)cc1N1CCN(CCC(F)(F)F)CC1)c1ccc(CN2CCN3CCCC3C2)cc1F (stereo not drawn) [Compound 157, N-(4-Chloro-2-(4-(3,3,3-trifluoropropyl)piperazin-1-yl)phenyl)-2-fluoro-4-((hexahydropyrrolo[1,2-a]pyrazin-2(1H)-yl)methyl)benzamide] | 0.184 |
| O=C(Nc1ccc(Cl)cc1N1CCN(CCC(F)(F)F)CC1)c1ccc(CN2CCS(=O)(=O)CC2)c(F)c1F [Compound 168, N-(4-Chloro-2-(4-(3,3,3-trifluoropropyl)piperazin-1-yl)phenyl)-2,3-difluoro-4-((1,1-dioxo-thiomorpholin-4-yl)methyl)benzamide] | 0.0272 |
| O=C(Nc1ccc(Cl)cc1N1CCN(CCC(F)(F)F)CC1)c1ccc(CN(CCO)CCO)c(F)c1F [Compound 178] | 0.0448 |
| O=C1CN(Cc2ccc(C(=O)Nc3cc(Cl)c(Cl)cc3N3CCN(CCC(F)(F)F)CC3)c(F)c2F)CCN1 [Compound 188, N-(4,5-Dichloro-2-(4-(3,3,3-trifluoropropyl)piperazin-1-yl)phenyl)-2,3-difluoro-4-((3-oxopiperazin-1-yl)methyl)benzamide] | 0.029 |
| COC(=O)[C@H](CN)NCc1ccc(C(=O)Nc2ccc(Cl)cc2N2CCN(CCC(F)(F)F)CC2)c(F)c1 [Compound 198, (S)-Methyl 3-amino-2-(4-(4-chloro-2-(4-(3,3,3-trifluoropropyl)piperazin-1-yl)phenylcarbamoyl)-3-fluorobenzylamino)propanoate] | 0.173 |
| CN(CC(=O)O)Cc1ccc(C(=O)Nc2ccc(Cl)cc2N2CCN(CCC(F)(F)F)CC2)c(F)c1F [Compound 210, 2-((4-(4-Chloro-2-(4-(3,3,3-trifluoropropyl)piperazin-1-yl)phenylcarbamoyl)-2,3-difluorobenzyl)(methyl)amino)acetic acid] | 0.068 |
| CC(C)(C)OC(=O)NCC[C@H](NCc1ccc(C(=O)Nc2ccc(Cl)cc2N2CCN(CCC(F)(F)F)CC2)c(F)c1F)C(=O)O [Compound 221, (S)-4-(tert-Butoxycarbonylamino)-2-(4-(4-chloro-2-(4-(3,3,3-trifluoropropyl)piperazin-1-yl)phenylcarbamoyl)-2,3-difluorobenzylamino)butanoic acid] | 0.157 |
| O=C(O)C[C@H]1CNCCN1Cc1ccc(C(=O)Nc2ccc(Cl)cc2N2CCN(CCC(F)(F)F)CC2)c(F)c1F [Compound 231, (S)-2-(1-(4-(4-Chloro-2-(4-(3,3,3-trifluoropropyl)piperazin-1-yl)phenylcarbamoyl)-2,3-difluorobenzyl)piperazin-2-yl)acetic acid] | 0.05 |
| C[C@@H](CO)NC(=O)C1CNCCN1Cc1ccc(C(=O)Nc2ccc(Cl)cc2N2CCN(CCC(F)(F)F)CC2)c(F)c1F (stereo partly drawn) [Compound 242, 1-(4-(4-Chloro-2-(4-(3,3,3-trifluoropropyl)piperazin-1-yl)phenylcarbamoyl)-2,3-difluorobenzyl)-N—((S)-1-hydroxypropan-2-yl)piperazine-2-carboxamide] | 0.315 |
| O=C(Nc1ccc(Cl)cc1N1CCN(CCC(F)(F)F)CC1)c1ccc(CN2CCC[C@@H](CO)C2)c(F)c1F [Compound 252, (R)—N-(4-Chloro-2-(4-(3,3,3-trifluoropropyl)piperazin-1-yl)phenyl)-2,3-difluoro-4-((3-(hydroxymethyl)piperidin-1-yl)methyl)benzamide] | 0.115 |

The molecules below were run against T2, human Mas receptor (Homo sapiens, UniProt P04201) (assay: HTRF IP1 assay, HEK293 cells expressing human Mas receptor). Conditions: HTRF IP1 assay, human Mas receptor (Table B.2); read-out: IC50.
T2 construct: expressed in transfected cells; host or cells: HEK293 (ATCC CRL-1573)
T2 sequence (P04201 1-325): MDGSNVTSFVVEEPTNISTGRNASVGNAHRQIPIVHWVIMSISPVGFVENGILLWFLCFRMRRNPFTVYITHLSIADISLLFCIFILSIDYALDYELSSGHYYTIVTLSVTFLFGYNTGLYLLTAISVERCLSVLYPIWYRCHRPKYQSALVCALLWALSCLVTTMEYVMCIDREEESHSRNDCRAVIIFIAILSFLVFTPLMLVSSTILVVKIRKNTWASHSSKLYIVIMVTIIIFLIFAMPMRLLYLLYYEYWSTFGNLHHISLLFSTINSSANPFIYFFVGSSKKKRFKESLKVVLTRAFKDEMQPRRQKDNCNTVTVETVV
Assay type: cell-based
From the text: as §1

| SMILES | IC50 [µM] |
| --- | --- |
| O=C(Nc1ccc(Cl)cc1N1CCN(CCC(F)(F)F)CC1)c1ccc(CN(CCO)CCO)c(F)c1F [Compound 178] | 0.0344 |
| O=C(O)C[C@H]1CNCCN1Cc1ccc(C(=O)Nc2ccc(Cl)cc2N2CCN(CCC(F)(F)F)CC2)c(F)c1F [Compound 231, (S)-2-(1-(4-(4-Chloro-2-(4-(3,3,3-trifluoropropyl)piperazin-1-yl)phenylcarbamoyl)-2,3-difluorobenzyl)piperazin-2-yl)acetic acid] | 0.0743 |

The molecules below were run on isolated perfused rat hearts (assay: Ex vivo coronary flow, Langendorff perfused isolated rat hearts). Conditions: after sodium deoxycholate; AR234960 1 μM; adenosine 1 μM.
Experimental: Coronary flow was measured in male Mas^−/− and Mas^+/+ mice, and in male Sprague-Dawley rats using Langendorff perfused isolated hearts. Freshly isolated hearts were placed on a Langendorff apparatus (Harvard Apparatus) and perfused at a constant pressure of 80 mmHg with a modified Krebs-Henseleit buffer solution (Sigma K3753) and aerated with 95% oxygen and 5% carbon dioxide, pH 7.35-7.4. The temperature was maintained at 37° C. by surrounding the heart with a water-heated glassware chamber. Coronary flow was measured using a flow measurement system (Harvard Apparatus) which included the transit time flow meter and a flow probe built into an adaptor block located at the perfusate inflow port. Data were recorded continuously using an ISOHEART data acquisition system (Harvard Apparatus). After a 20-min equilibration period, Mas compounds were added to the perfusion buffer reservoir at the desired concentration (agonist AR234960 at 1 μM, or inverse agonist AR244555 at 5 μM) and coronary flow was recorded for 10 min
To determine the role of the Mas-Gq-PLC pathway in regulating coronary flow, the Mas inverse agonist AR244555 (5 μM) or the PLC inhibitor U-73122 (0.5 μM) was added to the perfusion buffer for 10 min and then the agonist AR234960 (1 μM) was added to the perfusion buffer. Coronary flow was recorded for another 10 min Changes in coronary flow induced by AR234960 were calculated as percentage of the coronary flow at 10 min following AR234960 treatment, relative to the coronary flow measured immediately prior to addition of AR234960. This protocol allowed for measurement of agonist mediated vasoconstrictor activity, and accounted for changes in baseline coronary flow due to inverse agonist treatment alone.
To determine whether Mas agonist-induced changes in coronary flow were endothelium-dependent, the responses in Langendorff perfused hearts were measured after chemical removal of endothelium with sodium deoxycholate. After a 20-min equilibration period, sodium deoxycholate was added to the perfusion buffer at 0.2 mg/mL for 3 min and then washed out for 10 min Mas compounds were added and coronary flow was recorded for 10 min Adenosine (1 μM), a coronary vasodilator that targets the endothelium, was used as a control to verify effective removal of endothelium.

| SMILES | compound-mediated change in coronary flow in endothelium denuded hearts |
| --- | --- |
| Nc1ncnc2c1ncn2[C@@H]1O[C@H](CO)[C@@H](O)[C@H]1O [adenosine] | abolished |

Same assay, conditions: pretreatment 10 min: AR244555 5 μM or U-73122 0.5 μM

| SMILES | decrease in coronary flow induced by AR234960 (1 μM) after pretreatment |
| --- | --- |
| COc1ccc2c(c1)CC[C@@H]1[C@@H]2CC[C@]2(C)[C@@H](NCCCCCCN3C(=O)C=CC3=O)CC[C@@H]12 [Compound U-73122, 1-(6-((8R,9S,13S,14S,17S)-3-methoxy-13-methyl-7,8,9,11,12,13,14,15,16,17-decahydro-6H-cyclopenta[a]phenanthren-17-ylamino)hexyl)-1H-pyrrole-2,5-dione] | blocked the decrease; also recorded: prevented the decrease |
